Test results: US12502440B2, “Cross-linking compounds and methods of use thereof” (North Carolina State University, priority 2019, dated 2025)
Where “and” joins values, the source holds several entries; their conditions need not be identical. Identical values can stand only once.

Key:
[1] = molecular target: T1, β-glucosidase from Agrobacterium sp. (Agrobacterium sp., UniProt P12614); assay: Oligomerization of compound V with β-glucosidase; format: biochemical
T1 construct: purchased Megazyme
T1 sequence (P12614 1-459): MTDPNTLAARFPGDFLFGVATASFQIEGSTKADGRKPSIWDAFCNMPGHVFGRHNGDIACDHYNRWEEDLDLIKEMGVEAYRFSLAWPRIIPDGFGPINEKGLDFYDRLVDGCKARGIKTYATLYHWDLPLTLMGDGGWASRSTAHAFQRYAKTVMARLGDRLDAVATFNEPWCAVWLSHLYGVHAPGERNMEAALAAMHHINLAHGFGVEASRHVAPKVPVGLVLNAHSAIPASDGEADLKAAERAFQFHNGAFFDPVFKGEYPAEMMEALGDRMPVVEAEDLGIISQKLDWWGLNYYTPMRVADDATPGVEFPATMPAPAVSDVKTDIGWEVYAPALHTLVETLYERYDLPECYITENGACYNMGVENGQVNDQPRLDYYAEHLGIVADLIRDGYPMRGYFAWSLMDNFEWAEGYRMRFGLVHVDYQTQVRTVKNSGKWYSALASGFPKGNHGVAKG
Experimental: The oligomerization of compound V was examined by treatment with the enzyme-glucosidase. The reaction mixture contained 50 μM of compound V and 200 nM of β-glucosidase (250-fold ratio). The reaction mixture was only faintly blue but upon centrifugation after 5 h of incubation, a blue precipitate was obtained. According to the colors of samples (FIG. 13, panel A), the yield of precipitate is low by comparison with our previously reported enzyme-substrate pairs (see Example 1). Multiple additions of enzyme (4×0.20 μM of enzyme stock, every 2 h) and longer incubation times (10 h or 24 h) were also tested but no increase in solution intensity or precipitate was observed. For the samples after 300 min of incubation, the precipitates suspended in H2O were screened by optical microscopy (FIG. 13, panel B) and DLS (FIG. 13, panel C). The size of aggregates is between 100 and 1000 nm as measured by DLS, which is consistent with the images obtained by optical microscopy (˜1 μm).
Quantitation of the indigogenic compounds in the precipitate and supernatant was carried out by absorption spectroscopy and multicomponent analysis (MCA) (M. Taniguchi, et al., Photochem. Photobiol., 2018, 94, 277-289) (FIG. 13, panels D and E). MCA analysis is essential due to the overlaid spectra of indigo and coumarin at 362 nm, the peak wavelength for the coumarin. Spectral deconvolution relied on knowledge of the molar absorption coefficient at 362 nm of coumarin (εcou362=2.0×10^4 M^−1 cm^−1, measured in DMF) and indigo model compound F19 (see Example 1 where F-19 is compound 43) shown in Chart 2 (εind362=0.81×10^4 M^−1 cm^−1, measured in DMSO/H2O, v/v=2/1); and the molar absorption coefficient of F19 at 630 nm (εind630=2.6×10^4 M^−1 cm^−1, measured in DMSO/H2O, v/v=2/1). The residual upon MCA was smaller than any of the components, as required for accurate analysis (Y. Zhang, et al., Phytochem. Anal., 2018, 29, 205-216). In this manner, the precipitate is composed of 51.6 nmol of coumarin and 2.8 nmol of indigoid dye; the supernatant is composed of 11.1 nmol of coumarin and 0.3 nmol of indigoid dye.
Materials. DMF (HPLC grade) was purchased from Alfa Aesar. H2O (molecular biology grade) for buffer preparation was purchased from Millipore Sigma. Compound V (5.6 mg) was dissolved in DMF (26 μL) to prepare 100 mM stock solution. Pi buffer was prepared freshly at 10 mM, pH 7. The enzyme β-glucosidase from Agrobacterium sp. was purchased from MegaZyme and was dissolved in Pi buffer at 10 μM to prepare the stock solution.
To screen the oligomerization procedure of compound V, samples of Pi buffer (1859 μL), DMF (100 μL), […]-glucosidase stock (40 μL) and compound V stock (1 μL) were mixed in a 2-mL Eppendorf tube. The resulting mixed sample (2.0 mL) contains 50 μM of compound V as the substrate and 0.20 μM of β-glucosidase as the enzyme. Three identical samples were prepared for different assays. For a control sample, 40 μL of Pi buffer was added as a replacement for the β-glucosidase stock solution. The tubes were incubated at 37° C. for 5 h, and pictures of the tubes were captured at 0, 15, 30, 60, 120, 180 and 300 min. After 300 min, the tubes were centrifuged at 20,000×g for 10 min to isolate any precipitate from the supernatant. No precipitate formed in the control sample.
Three samples were treated differently for three assays: (1) for sample 1, the precipitate was dissolved in 100 μL of DMF for absorption screening; (2) for sample 2, the precipitate was suspended in 100 μL of H2O for microscopic imaging; and (3) for sample 3, the precipitate was suspended in 1000 μL of H2O for dynamic light scattering (DLS) assay. The supernatant of sample 1 was freeze-dried under high vacuum and afterwards dissolved in 100 μL of DMF for absorption screening. The absorption spectra of the precipitates and supernatants were employed for quantitation of indigo and coumarin. […]

[2] = Solubility in aqueous buffer; format: physicochemical; conditions: 100 mM phosphate buffer (pH 7.4, containing 100 mM NaCl), room temperature
From the text: Water solubility of the indoxyl glucoside is important for biological applications. […] Therefore, this compound is not suitable for bioconjugation. The synthesis of 34 relies on successive substitution of the dichloroanilinotriazine unit (derived from N,N-bis(2-methoxyethyl)aniline^31 and cyanuric chloride) with indoxyl-glucoside-PEG-OH and BCN-PEG-NH2 building blocks.
To improve the water solubility of the indoxyl species, a sulfobetaine unit^32,33 was incorporated as a water-solubilizing group. Sulfobetaines are stable zwitterions over a wide range of pH. Synthesis of an indoxyl bearing a sulfobetaine unit is illustrated in Scheme 6. Boc-piperazine (35) was treated with 1,3-propane sultone to afford 36 in 63% yield. Quaternization of the tertiary nitrogen atom in 36 with 3-bromopropanol gave Boc-protected sulfobetaine 37 in 69% yield. The Boc group was cleaved with trifluoroacetic acid (TFA) to afford piperazine-TFA salt 38 in 97% yield. The N-acetyl group of 32 was selectively deprotected with NaHCO3/MeOH in 84% yield. The product 39, piperazine-TFA salt 38, and BCN-amine 14 were assembled at a triazine ring via one-flask, successive substitution of cyanuric chloride to afford 40 in 51% yield. Cleavage of the acetyl groups of sulfobetaine 40 provided 41 in 98% yield.

[3] = molecular target: T2, β-glucosidase from Agrobacterium (Agrobacterium sp., UniProt P12614); assay: Indigogenic reaction with β-glucosidase from Agrobacterium; format: biochemical; conditions: as E4 but ε measured for 43 (footnote g)
T2 construct: purchased Megazyme
T2 sequence (P12614 1-459): T1 sequence (P12614 1-459)
Experimental: Next, the β-glucosidase from Agrobacterium sp. was investigated as the trigger enzyme for indigoid dye formation. […] The reaction was carried out using the enzyme (200 nM) and indoxyl-glucoside 33 (100 μM) in phosphate buffer (pH 4-9, containing 2% DMF) at 37° C. […] Note that with 200 nM enzyme and 100 μM substrate, complete reaction requires 500 turnovers of each enzyme.
Reactions with β-glucosidase from Agrobacterium. An indoxyl compound in DMF (2 μL, 5 mM) and β-glucosidase from Agrobacterium in 10 mM phosphate buffer [2 μL, 10 μM, pH 7.0, containing 50 mM NaCl and 0.6 M (NH4)2SO4] were mixed with 50 mM phosphate buffer (96 μL, pH 7.0). The reaction mixture was incubated at 37° C. for 2 h and then centrifuged for 3 min. Any precipitate was separated from the supernatant and dissolved in DMF (200 μL). The resulting solution was analyzed by absorption spectroscopy. The experiment was repeated three times.

[4] = system: β-glucosidase from almonds; assay: Indigogenic reaction with β-glucosidase from almonds; format: biochemical; conditions: as E1 but ε measured for 43 (footnote g)
[5] = system: rat liver homogenate; assay: Indigoid-dye formation in rat liver homogenate; format: biochemical; conditions: as E7 but ε measured for 43 (footnote g)
Experimental: Finally, indigoid-dye formation was carried out in rat liver homogenate (Table 1, rightmost column).
Reactions in rat liver homogenate. An indoxyl compound in DMF (5 μL, 20 mM) was mixed with rat liver homogenate (95 μL). The reaction mixture was incubated at 37° C. for 24 h. After allowing to cool to room temperature, the reaction mixture was diluted with DMF (900 μL). The mixture was heated at 70° C. for 2 min and then centrifuged for 2 min. The supernatant was separated from any precipitate. This extraction procedure was repeated two or three times with DMF (100-500 μL). The combined supernatant (1500-1800 μL) was analyzed by absorption spectroscopy.

[6] = molecular target: T3, β-glucosidase from Agrobacterium plus rat liver homogenate (Agrobacterium sp., UniProt P12614); assay: Reaction of 33 with β-glucosidase from Agrobacterium in rat liver homogenate; format: biochemical; conditions: 33 100 μM, enzyme 200 nM, rat liver homogenate with 2% DMF, 37° C., 4 h; ε measured for 43 (footnotes g,h)
T3 construct: purchased Megazyme
T3 sequence (P12614 1-459): T1 sequence (P12614 1-459)
Experimental: Reaction of 33 with β-glucosidase from Agrobacterium in rat liver homogenate. A DMF solution of 33 (2 μL, 5 mM) and β-glucosidase from Agrobacterium in 10 mM phosphate buffer [2 μL, 10 μM, pH 7.0, containing 50 mM NaCl and 0.6 M (NH4)2SO4] were mixed with rat liver homogenate (96 μL). The reaction mixture was incubated at 37° C. for 4 h and then centrifuged for 3 min. Any precipitate was separated from the supernatant and then suspended in DMF (200 μL). The suspension was centrifuged for 3 min. The supernatant was analyzed by absorption spectroscopy.

[7] = 50 μM compound V (100 nmol), 200 nM β-glucosidase, 37° C., 300 min, MCA
[8] = 50 μM compound V (100 nmol), 200 nM β-glucosidase, 37° C., 300 min, absorption spectroscopy with MCA

Cc1cc(=O)oc2cc(NCCNc3nc(NCCOCCOCCOCCOCCOCCN=[N+]=[N-])nc(OCCC[N+]4(CCCS(=O)(=O)[O-])CCN(c5nc(OCCOCCOCCOc6c(Br)cc7[nH]cc(O[C@@H]8O[C@H](CO)[C@@H](O)[C@H](O)[C@H]8O)c7c6Br)nc(OCCOCCOCCOc6c(Br)cc7[nH]cc(O[C@@H]8O[C@H](CO)[C@@H](O)[C@H](O)[C@H]8O)c7c6Br)n5)CC4)n3)ccc12 [Compound V, 2,4-Bis[1-(3-(β-D-glucopyranosyloxy)-4,6-dibromo-1H-indol-5-yl)-1,4,7,10-tetraoxadec-10-yl]-6-[4-(3-(2-(1-azido-3,6,9,12,15-pentaoxoheptadecylamino)-4-[2-((4-methyl-2H-chromen-2-one-7-yl)amino)ethylamino]-1,3,5-triazin-6-yloxy)propyl)-4-(3-sulfopropyl)piperazin-1-yl]-1,3,5-triazine]
total amount of coumarin calculated by MCA ([1]; 100 nmol compound V added): 62.7 nmol | coumarin in the precipitate [1, 7]: 51.6 nmol | coumarin in the supernatant [1, 7]: 11.1 nmol | indigoid dye in the precipitate [1, 8]: 2.8 nmol | indigoid dye in the supernatant [1, 8]: 0.3 nmol | total quantity of indigoid dye ([1]; precipitate plus supernatant, 100 nmol compound V added): 3.1 nmol | yield of indigoid dye ([1]; total indigoid dye, 100 nmol compound V added): 3.1%

O=C(NCCOCCOCCNc1nc(OCCOCCOCCOc2c(Br)cc3[nH]cc(OC4O[C@H](CO)[C@@H](O)[C@H](O)[C@H]4O)c3c2Br)nc(N2CC[N+](CCCO)(CCCS(=O)(=O)[O-])CC2)n1)OC[C@@H]1[C@@H]2CCC#CCC[C@@H]21 (stereo partly shown) [compound 41]
solubility [2]: > 400 µM | Yield (%) of indigoid dye, β-glucosidase from Agrobacterium [3]: 106% and 106 ± 4^g %

OCCOCCOCCOc1c(Br)cc2[nH]cc(O[C@@H]3O[C@H](CO)[C@@H](O)[C@H](O)[C@H]3O)c2c1Br [compound 33, 4,6-Dibromo-5-[1-hydroxy-3,6,9-trioxanon-9-yl]-1H-indol-3-yl β-D-glucopyranoside]
Yield (%) of indigoid dye, β-glucosidase from almonds [4]: 52% and 52^g % | Yield (%) of indigoid dye, β-glucosidase from Agrobacterium [3]: 99% and 99 ± 5^g % | Yield (%) of indigoid dye, rat liver homogenate [5]: < 5% | Yield (%) of indigoid dye, β-glucosidase from Agrobacterium plus rat liver homogenate [6]: 81% and 81 ± 5%
